Values joined by “and” are separate entries in the source; they are usually repeats but may differ in a detail not shown here. Identical values can stand only once. Results filed as inconclusive are left out.
Test system: nude mice, LX-1 lung xenograft intrarenal, tumor weight T/C
Assay: NCI In Vivo Anticancer Drug Screen. Data for tumor model Human Lung LX-1 Xenograft (intrarenal inoculation) in NU/NU Swiss (nude) mice
Conditions: endpoint: mean tumor weight change, higher = larger tumour
How it was run: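 In vivo, transplantable tumor; compound vs vehicle arms; tumor size measured; value = T/C.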

[1] = dose: 600.0 mg/kg/injection, schedule: Q04DX003 (sc), vehicle: saline with Tween-80
[2] = dose: 50.0 mg/kg/injection, schedule: Q01DX010 (sc), vehicle: saline
[3] = dose: 100.0 mg/kg/injection, schedule: Q01DX010 (sc), vehicle: saline
[4] = dose: 300.0 mg/kg/injection, schedule: Q04DX003 (sc), vehicle: saline
[5] = dose: 600.0 mg/kg/injection, schedule: Q04DX003 (sc), vehicle: saline
[6] = dose: 1200.0 mg/kg/injection, schedule: Q04DX003 (sc), vehicle: saline
[7] = dose: 50.0 mg/kg/injection, schedule: Q01DX010 (sc), vehicle: saline with Tween-80
[8] = dose: 100.0 mg/kg/injection, schedule: Q01DX010 (sc), vehicle: saline with Tween-80
[9] = dose: 200.0 mg/kg/injection, schedule: Q01DX010 (sc), vehicle: saline with Tween-80
[10] = dose: 12.5 mg/kg/injection, schedule: Q01DX010 (sc), vehicle: saline with Tween-80
[11] = dose: 25.0 mg/kg/injection, schedule: Q01DX010 (sc), vehicle: saline with Tween-80
[12] = dose: 5.0 mg/kg/injection, schedule: Q04DX003 (sc), vehicle: saline

O=c1[nH]c2c(ccc3cnccc32)c2c1CCC2
T/C (dose: 100.0 mg/kg/injection, schedule: Q04DX003 (sc), vehicle: suspension in saline): 87 % of control | T/C (dose: 200.0 mg/kg/injection, schedule: Q04DX003 (sc), vehicle: suspension in saline): 87 % of control | T/C (dose: 400.0 mg/kg/injection, schedule: Q04DX003 (sc), vehicle: suspension in saline): 57 % of control | T/C (dose: 800.0 mg/kg/injection, schedule: Q04DX003 (sc), vehicle: suspension in saline): 109 % of control

C=C/C(C)=C/[C@H](C)C(=O)C[C@H](O)CC1CC(=O)NC(=O)C1
T/C (dose: 75.0 mg/kg/injection, schedule: Q04DX003 (sc), vehicle: saline with Tween-80): 111 % of control | T/C (dose: 150.0 mg/kg/injection, schedule: Q04DX003 (sc), vehicle: saline with Tween-80): 61 % of control | T/C (dose: 300.0 mg/kg/injection, schedule: Q04DX003 (sc), vehicle: saline with Tween-80): 69 % of control | T/C [1]: 70 % of control

O=C1C=CN(C2OC(CO)C(O)C2O)C(=O)C1 (configuration not stated)
T/C [2]: 65 % of control | T/C [3]: 21 % of control

CC(=O)Oc1ccc[nH]c1=O
T/C (dose: 400.0 mg/kg/injection, schedule: Q04DX003 (sc), vehicle: saline with Tween-80): 87 % of control | T/C (dose: 800.0 mg/kg/injection, schedule: Q04DX003 (sc), vehicle: saline with Tween-80): 91 % of control

C#C[C@]1(O)CC[C@H]2[C@@H]3CCc4cc(O)ccc4[C@H]3CC[C@@]21C
T/C (dose: 300.0 mg/kg/injection, schedule: Q04DX003 (sc), vehicle: Klucel (hydroxypropylcellulose) (HPC)): 70 % of control | T/C (dose: 600.0 mg/kg/injection, schedule: Q04DX003 (sc), vehicle: Klucel (hydroxypropylcellulose) (HPC)): 102 % of control | T/C (dose: 1200.0 mg/kg/injection, schedule: Q04DX003 (sc), vehicle: Klucel (hydroxypropylcellulose) (HPC)): 50 % of control | T/C (dose: 2400.0 mg/kg/injection, schedule: Q04DX003 (sc), vehicle: Klucel (hydroxypropylcellulose) (HPC)): 55 % of control

CCCCCC[C@@H](O)C/C=C\CCCCCCCC(=O)OCCO
T/C [4]: 69 % of control | T/C [5]: 90 % of control | T/C [6]: 28 % of control | T/C (dose: 2400.0 mg/kg/injection, schedule: Q04DX003 (sc), vehicle: saline): 50 % of control

COc1cc(Cc2nccc3cc(OC)c(OC)cc23)c(C(C)=O)cc1OC
T/C (dose: 150.0 mg/kg/injection, schedule: Q04DX003 (sc), vehicle: saline): 87 % of control | T/C [4]: 88 % of control | T/C [5]: 99 % of control | T/C [6]: 87 % of control

BrCC[Se]c1ccccc1
T/C [7]: 92 % of control | T/C [8]: 62 % of control | T/C [9]: 55 % of control

NC(=S)c1cn(C2OC(CO)C(O)C2O)c2ncnc(N)c12 (configuration not stated)
T/C (dose: 6.25 mg/kg/injection, schedule: Q04DX003 (sc), vehicle: suspension in saline): 58 % of control | T/C (dose: 12.5 mg/kg/injection, schedule: Q04DX003 (sc), vehicle: suspension in saline): 43 % of control

c1ccc2c(c1)nnn1c3cnccc3nc21
T/C (dose: 3.12 mg/kg/injection, schedule: Q01DX010 (sc), vehicle: saline with Tween-80): 59 % of control | T/C (dose: 6.25 mg/kg/injection, schedule: Q01DX010 (sc), vehicle: saline with Tween-80): 187 % of control | T/C [10]: 72 % of control | T/C [11]: 107 % of control | T/C [7]: 160 % of control | T/C [8]: 210 % of control

O=NNc1ccccn1
T/C (dose: 0.13 mg/kg/injection, schedule: Q01DX010 (sc), vehicle: saline): 120 % of control | T/C (dose: 0.25 mg/kg/injection, schedule: Q01DX010 (sc), vehicle: saline): 309 % of control | T/C (dose: 0.5 mg/kg/injection, schedule: Q01DX010 (sc), vehicle: saline): 211 % of control | T/C (dose: 1.0 mg/kg/injection, schedule: Q01DX010 (sc), vehicle: saline): 105 % of control | T/C (dose: 32.0 mg/kg/injection, schedule: Q01DX010 (sc), vehicle: saline): 46 % of control | T/C (dose: 64.0 mg/kg/injection, schedule: Q01DX010 (sc), vehicle: saline): 30 % of control

NC(Cn1ccc(=O)c(O)c1)C(=O)O (configuration not stated)
T/C (dose: 300.0 mg/kg/injection, schedule: Q04DX003 (sc), vehicle: suspension in saline): 115 % of control | T/C (dose: 600.0 mg/kg/injection, schedule: Q04DX003 (sc), vehicle: suspension in saline): 104 % of control | T/C (dose: 1200.0 mg/kg/injection, schedule: Q04DX003 (sc), vehicle: suspension in saline): 119 % of control | T/C (dose: 2400.0 mg/kg/injection, schedule: Q04DX003 (sc), vehicle: suspension in saline): 73 % of control

c1ccc([P+](c2ccccc2)(c2ccccc2)c2ccccc2)cc1
T/C (dose: 2.5 mg/kg/injection, schedule: Q04DX003 (sc), vehicle: saline): 93 % of control | T/C [12]: 107 % of control | T/C (dose: 10.0 mg/kg/injection, schedule: Q04DX003 (sc), vehicle: saline): 71 % of control and 87 % of control

NS(=O)(=O)OCCCCCCCOS(N)(=O)=O
T/C (dose: 150.0 mg/kg/injection, schedule: Q04DX003 (ip), vehicle: saline with Tween-80): 109 % of control | T/C (dose: 300.0 mg/kg/injection, schedule: Q04DX003 (ip), vehicle: saline with Tween-80): 123 % of control

C=CC(=O)NCNC(=O)C=C
T/C (dose: 25.0 mg/kg/injection, schedule: Q01DX010 (sc), vehicle: saline): 88 % of control | T/C [2]: 103 % of control | T/C [3]: 64 % of control

COc1cccc2c1C(=O)c1c(O)c3c(c(O)c1C2=O)C[C@@](O)(C(=O)CO)C[C@@H]3OC1CC(N)C(O)C(C)O1 (some centres not stated)
T/C (dose: 4.0 mg/kg/injection, schedule: Q04DX003 (sc), vehicle: water): 45 % of control and 53 % of control | T/C (dose: 4.5 mg/kg/injection, schedule: Q04DX003 (sc), vehicle: saline): 72 % of control | T/C (dose: 9.0 mg/kg/injection, schedule: Q04DX003 (sc), vehicle: saline): 44 % of control

O=C1C(=O)c2ccccc2C(O)=C1CC=C(Cl)Cl
T/C (dose: 25.0 mg/kg/injection, schedule: Q01DX010 (sc), vehicle: water): 255 % of control | T/C (dose: 50.0 mg/kg/injection, schedule: Q01DX010 (sc), vehicle: water): 95 % of control | T/C (dose: 100.0 mg/kg/injection, schedule: Q01DX010 (sc), vehicle: water): 117 % of control | T/C (dose: 200.0 mg/kg/injection, schedule: Q01DX010 (sc), vehicle: water): 158 % of control

O=NN(CCCl)C(=O)NC1[C@H](O)CCC[C@@H]1O (some centres not stated)
T/C [12]: 25 % of control and 30 % of control and 48 % of control

COCC1OC2OC3C(COC)OC(OC4C(COC)OC(OC5C(COC)OC(OC6C(COC)OC(OC7C(COC)OC(OC8C(COC)OC(OC1C(O)C2O)C(O)C8O)C(O)C7O)C(O)C6O)C(O)C5O)C(O)C4O)C(O)C3O (configuration not stated) (tested in a mixture with another compound)
T/C (dose: 200.0 mg/kg/injection, schedule: Q04DX003 (sc), vehicle: Klucel (hydroxypropylcellulose) (HPC)): 156 % of control

COC1=C(OC)C(=O)C(SC/C=C(\C)CCCC(C)CCCC(C)CCCC(C)C)=CC1=O (configuration not stated)
T/C [1]: 91 % of control | T/C (dose: 1200.0 mg/kg/injection, schedule: Q04DX003 (sc), vehicle: saline with Tween-80): 40 % of control | T/C (dose: 2400.0 mg/kg/injection, schedule: Q04DX003 (sc), vehicle: saline with Tween-80): 55 % of control

CCC1=C[C@H]2CN(CCc3c([nH]c4ccccc34)[C@@](C(=O)OC)(c3cc4c(cc3OC)N(C)[C@H]3[C@@](O)(C(=O)OC)[C@H](OC(C)=O)[C@]5(CC)C=CCN6CC[C@]43[C@@H]65)C2)C1
T/C (dose: 6.0 mg/kg/injection, schedule: Q04DX003 (sc), vehicle: water): 106 % of control | T/C (dose: 12.0 mg/kg/injection, schedule: Q04DX003 (sc), vehicle: water): 89 % of control

C/C(=N/NC(N)=S)c1ccc2ccccc2c1
T/C [10]: 63 % of control | T/C [11]: 42 % of control | T/C [9]: 61 % of control | T/C (dose: 400.0 mg/kg/injection, schedule: Q01DX010 (sc), vehicle: saline with Tween-80): 39 % of control

C=C(OP(=O)(OC)OC)Sc1ccccc1C
T/C (dose: 100.0 micrograms/kg/injection, schedule: Q04DX003 (sc), vehicle: Klucel (hydroxypropylcellulose) (HPC)): 68 % of control | T/C (dose: 200.0 micrograms/kg/injection, schedule: Q04DX003 (sc), vehicle: Klucel (hydroxypropylcellulose) (HPC)): 68 % of control | T/C (dose: 400.0 micrograms/kg/injection, schedule: Q04DX003 (sc), vehicle: Klucel (hydroxypropylcellulose) (HPC)): 67 % of control | T/C (dose: 800.0 micrograms/kg/injection, schedule: Q04DX003 (sc), vehicle: Klucel (hydroxypropylcellulose) (HPC)): 79 % of control

O=c1n(CC2CO2)c(=O)n(CC2CO2)n1CC1CO1 (configuration not stated)
T/C (dose: 12.5 mg/kg/injection, schedule: Q04DX003 (sc), vehicle: saline): 74 % of control | T/C (dose: 25.0 mg/kg/injection, schedule: Q04DX003 (sc), vehicle: saline): 77 % of control
